Drawing on ChEMBL document CHEMBL3991601, “The target landscape of clinical kinase drugs” (Science, 2017), this text covers Kd for eleven compounds.

Calls of active or inactive are those of the source. For most assays here, no stated cut-off is given here; in the data, actives have a measured Kd and inactives only a lower limit. A value given as a limit tells only on which side of the number the result lay.

The target in test [1] is Ribosomal protein S6 kinase alpha-5 (Homo sapiens, UniProt O75582).
The target of test [2] is T1, Serine/threonine-protein kinase TAO1 (Homo sapiens, UniProt Q7L7X3).
T1 sequence (Q7L7X3 whole entry): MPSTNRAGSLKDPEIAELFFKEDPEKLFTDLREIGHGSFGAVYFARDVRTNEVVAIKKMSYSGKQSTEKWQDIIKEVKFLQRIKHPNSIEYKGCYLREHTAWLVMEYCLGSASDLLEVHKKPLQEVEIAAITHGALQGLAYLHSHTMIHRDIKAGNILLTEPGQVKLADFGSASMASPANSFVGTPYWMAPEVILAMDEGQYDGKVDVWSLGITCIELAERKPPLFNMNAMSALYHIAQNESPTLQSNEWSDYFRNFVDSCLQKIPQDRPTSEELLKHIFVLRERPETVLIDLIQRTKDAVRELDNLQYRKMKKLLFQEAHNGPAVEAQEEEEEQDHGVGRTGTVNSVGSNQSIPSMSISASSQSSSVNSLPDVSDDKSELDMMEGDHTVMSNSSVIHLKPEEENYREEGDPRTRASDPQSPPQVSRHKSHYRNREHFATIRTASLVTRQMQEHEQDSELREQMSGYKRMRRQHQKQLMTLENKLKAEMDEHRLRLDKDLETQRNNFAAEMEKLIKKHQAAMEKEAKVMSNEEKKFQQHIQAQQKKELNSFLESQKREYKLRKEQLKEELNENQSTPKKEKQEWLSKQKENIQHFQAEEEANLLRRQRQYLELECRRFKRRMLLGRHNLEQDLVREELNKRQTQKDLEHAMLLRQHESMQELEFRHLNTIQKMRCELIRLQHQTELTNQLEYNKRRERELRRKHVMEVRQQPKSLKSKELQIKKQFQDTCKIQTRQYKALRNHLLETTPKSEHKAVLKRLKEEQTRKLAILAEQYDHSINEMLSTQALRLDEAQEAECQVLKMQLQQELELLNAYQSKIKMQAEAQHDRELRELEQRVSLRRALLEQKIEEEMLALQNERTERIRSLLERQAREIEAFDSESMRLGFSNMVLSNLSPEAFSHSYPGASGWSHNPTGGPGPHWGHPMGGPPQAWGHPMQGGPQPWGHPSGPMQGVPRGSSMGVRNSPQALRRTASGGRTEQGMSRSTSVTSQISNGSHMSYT

Test [3] deals with T2, Tyrosine-protein kinase Tec (Homo sapiens, UniProt P42680).
T2 sequence (P42680 whole entry): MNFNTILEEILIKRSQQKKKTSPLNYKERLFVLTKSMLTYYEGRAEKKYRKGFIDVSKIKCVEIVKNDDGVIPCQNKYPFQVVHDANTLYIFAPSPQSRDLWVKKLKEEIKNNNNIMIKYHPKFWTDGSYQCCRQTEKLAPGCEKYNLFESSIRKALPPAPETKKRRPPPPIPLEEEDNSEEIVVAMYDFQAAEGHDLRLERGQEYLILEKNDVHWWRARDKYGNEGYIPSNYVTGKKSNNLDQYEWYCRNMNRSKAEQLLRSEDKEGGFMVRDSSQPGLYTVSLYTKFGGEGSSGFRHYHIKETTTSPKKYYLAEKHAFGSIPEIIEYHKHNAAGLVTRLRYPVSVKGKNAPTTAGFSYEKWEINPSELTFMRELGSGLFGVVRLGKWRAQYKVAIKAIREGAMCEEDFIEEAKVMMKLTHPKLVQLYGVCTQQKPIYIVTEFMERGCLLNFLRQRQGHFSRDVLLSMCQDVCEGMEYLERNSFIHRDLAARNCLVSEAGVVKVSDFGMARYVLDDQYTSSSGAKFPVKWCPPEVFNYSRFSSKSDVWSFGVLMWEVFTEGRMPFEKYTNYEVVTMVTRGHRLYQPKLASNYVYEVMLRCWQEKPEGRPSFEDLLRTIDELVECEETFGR

Test [4] concerns the target Protein-tyrosine kinase 2-beta (Homo sapiens, UniProt Q14289).
Test [5] concerns the target Ribosomal protein S6 kinase beta-1 (Homo sapiens, UniProt P23443).
Test [6] addresses Casein kinase II subunit alpha' (Homo sapiens, UniProt P19784).
Test [7] concerns the target Serine/threonine-protein kinase MRCK beta (Homo sapiens, UniProt Q9Y5S2).
The target in test [8] is T3, Probable ATP-dependent RNA helicase DDX6 (Homo sapiens, UniProt P26196).
T3 sequence (P26196 whole entry): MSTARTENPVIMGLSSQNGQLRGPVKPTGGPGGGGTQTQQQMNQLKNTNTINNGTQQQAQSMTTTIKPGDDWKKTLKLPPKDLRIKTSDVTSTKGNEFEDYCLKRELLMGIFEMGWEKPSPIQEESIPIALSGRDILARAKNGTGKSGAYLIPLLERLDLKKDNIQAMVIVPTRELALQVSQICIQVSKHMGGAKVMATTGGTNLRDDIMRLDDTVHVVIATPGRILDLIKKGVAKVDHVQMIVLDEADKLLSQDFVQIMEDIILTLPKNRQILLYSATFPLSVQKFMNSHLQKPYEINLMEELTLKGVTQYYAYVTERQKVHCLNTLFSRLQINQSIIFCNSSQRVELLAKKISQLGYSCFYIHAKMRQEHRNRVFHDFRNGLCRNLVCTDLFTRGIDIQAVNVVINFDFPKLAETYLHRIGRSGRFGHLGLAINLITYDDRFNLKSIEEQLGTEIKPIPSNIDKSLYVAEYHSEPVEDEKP

Test [9] has as its target Protein kinase C beta type (Homo sapiens, UniProt P05771).
In test [10] the target is Dual specificity protein kinase CLK1 (Homo sapiens, UniProt P49759).
The target of test [11] is Mitogen-activated protein kinase kinase kinase 4 (Homo sapiens, UniProt Q9Y6R4).
Test [12] addresses Ephrin type-A receptor 7 (Homo sapiens, UniProt Q15375).

Sequence of Protein-tyrosine kinase 2-beta (Q14289 whole entry): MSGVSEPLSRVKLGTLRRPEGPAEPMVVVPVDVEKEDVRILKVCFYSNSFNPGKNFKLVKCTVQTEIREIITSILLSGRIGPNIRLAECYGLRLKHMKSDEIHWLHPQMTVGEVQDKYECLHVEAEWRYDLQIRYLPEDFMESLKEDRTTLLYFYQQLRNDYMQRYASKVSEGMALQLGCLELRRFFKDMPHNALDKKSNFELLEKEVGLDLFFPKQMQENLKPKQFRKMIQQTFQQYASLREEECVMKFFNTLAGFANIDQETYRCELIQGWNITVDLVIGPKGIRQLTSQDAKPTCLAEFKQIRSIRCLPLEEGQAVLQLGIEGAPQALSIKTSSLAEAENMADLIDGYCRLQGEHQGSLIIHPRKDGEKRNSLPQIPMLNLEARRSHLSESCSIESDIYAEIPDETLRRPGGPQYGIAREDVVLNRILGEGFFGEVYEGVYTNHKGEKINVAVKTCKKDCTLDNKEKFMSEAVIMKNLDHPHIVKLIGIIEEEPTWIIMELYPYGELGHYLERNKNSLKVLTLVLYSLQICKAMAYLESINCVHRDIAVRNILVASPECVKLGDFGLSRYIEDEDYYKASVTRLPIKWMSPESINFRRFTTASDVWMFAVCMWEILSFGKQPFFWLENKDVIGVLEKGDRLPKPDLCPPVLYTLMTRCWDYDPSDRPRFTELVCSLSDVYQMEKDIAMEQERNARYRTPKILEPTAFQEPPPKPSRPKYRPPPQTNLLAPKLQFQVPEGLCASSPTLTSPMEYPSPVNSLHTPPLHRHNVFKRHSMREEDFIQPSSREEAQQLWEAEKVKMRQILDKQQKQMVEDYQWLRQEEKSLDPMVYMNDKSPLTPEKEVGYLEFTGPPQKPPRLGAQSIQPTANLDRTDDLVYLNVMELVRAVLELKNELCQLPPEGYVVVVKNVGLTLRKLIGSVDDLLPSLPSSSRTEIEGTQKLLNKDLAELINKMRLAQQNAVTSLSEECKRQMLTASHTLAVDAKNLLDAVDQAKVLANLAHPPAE
Sequence of Protein kinase C beta type (P05771 whole entry): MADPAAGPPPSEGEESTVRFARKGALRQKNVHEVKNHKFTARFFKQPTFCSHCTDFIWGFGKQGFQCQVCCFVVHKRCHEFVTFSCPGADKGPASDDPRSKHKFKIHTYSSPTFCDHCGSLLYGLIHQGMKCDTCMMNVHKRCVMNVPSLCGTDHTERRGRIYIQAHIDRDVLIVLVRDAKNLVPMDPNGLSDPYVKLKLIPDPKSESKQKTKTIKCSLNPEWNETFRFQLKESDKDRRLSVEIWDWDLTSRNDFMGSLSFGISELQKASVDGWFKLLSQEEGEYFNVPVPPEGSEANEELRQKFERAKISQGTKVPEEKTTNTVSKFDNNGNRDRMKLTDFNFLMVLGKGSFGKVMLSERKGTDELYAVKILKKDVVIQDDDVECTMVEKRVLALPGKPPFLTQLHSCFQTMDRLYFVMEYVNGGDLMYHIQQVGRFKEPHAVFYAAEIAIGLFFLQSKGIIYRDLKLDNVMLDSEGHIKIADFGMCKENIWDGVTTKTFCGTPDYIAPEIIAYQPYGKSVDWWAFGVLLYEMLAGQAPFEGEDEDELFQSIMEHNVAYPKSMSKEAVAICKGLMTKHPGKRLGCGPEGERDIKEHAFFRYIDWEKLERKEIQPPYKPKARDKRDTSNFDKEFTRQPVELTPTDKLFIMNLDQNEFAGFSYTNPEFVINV
Sequence of Ephrin type-A receptor 7 (Q15375 whole entry): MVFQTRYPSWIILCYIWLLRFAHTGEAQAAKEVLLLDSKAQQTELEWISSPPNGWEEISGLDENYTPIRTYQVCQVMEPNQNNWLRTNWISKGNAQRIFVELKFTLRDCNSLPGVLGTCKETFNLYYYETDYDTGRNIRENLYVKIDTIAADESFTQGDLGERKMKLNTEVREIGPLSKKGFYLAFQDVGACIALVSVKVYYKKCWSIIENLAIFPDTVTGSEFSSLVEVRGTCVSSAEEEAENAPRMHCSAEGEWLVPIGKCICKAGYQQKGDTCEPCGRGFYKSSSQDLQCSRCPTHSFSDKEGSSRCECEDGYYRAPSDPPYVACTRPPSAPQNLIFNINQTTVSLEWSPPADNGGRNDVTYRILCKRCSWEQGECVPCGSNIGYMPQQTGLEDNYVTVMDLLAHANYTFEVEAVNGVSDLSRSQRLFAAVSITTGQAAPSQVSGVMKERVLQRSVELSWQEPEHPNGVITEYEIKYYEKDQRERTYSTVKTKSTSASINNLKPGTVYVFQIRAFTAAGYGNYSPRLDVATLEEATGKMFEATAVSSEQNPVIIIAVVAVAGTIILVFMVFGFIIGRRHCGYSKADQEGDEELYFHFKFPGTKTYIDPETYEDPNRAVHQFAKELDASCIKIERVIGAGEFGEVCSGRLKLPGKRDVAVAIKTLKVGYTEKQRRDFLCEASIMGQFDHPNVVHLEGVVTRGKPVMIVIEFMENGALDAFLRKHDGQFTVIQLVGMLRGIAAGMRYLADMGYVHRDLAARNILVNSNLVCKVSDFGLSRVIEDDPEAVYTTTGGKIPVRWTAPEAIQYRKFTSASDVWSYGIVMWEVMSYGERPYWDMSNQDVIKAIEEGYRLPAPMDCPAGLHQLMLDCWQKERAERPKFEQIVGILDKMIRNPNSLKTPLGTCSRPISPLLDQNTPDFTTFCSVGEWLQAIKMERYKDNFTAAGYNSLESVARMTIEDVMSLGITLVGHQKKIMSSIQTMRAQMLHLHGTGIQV
Sequence of Mitogen-activated protein kinase kinase kinase 4 (Q9Y6R4 whole entry): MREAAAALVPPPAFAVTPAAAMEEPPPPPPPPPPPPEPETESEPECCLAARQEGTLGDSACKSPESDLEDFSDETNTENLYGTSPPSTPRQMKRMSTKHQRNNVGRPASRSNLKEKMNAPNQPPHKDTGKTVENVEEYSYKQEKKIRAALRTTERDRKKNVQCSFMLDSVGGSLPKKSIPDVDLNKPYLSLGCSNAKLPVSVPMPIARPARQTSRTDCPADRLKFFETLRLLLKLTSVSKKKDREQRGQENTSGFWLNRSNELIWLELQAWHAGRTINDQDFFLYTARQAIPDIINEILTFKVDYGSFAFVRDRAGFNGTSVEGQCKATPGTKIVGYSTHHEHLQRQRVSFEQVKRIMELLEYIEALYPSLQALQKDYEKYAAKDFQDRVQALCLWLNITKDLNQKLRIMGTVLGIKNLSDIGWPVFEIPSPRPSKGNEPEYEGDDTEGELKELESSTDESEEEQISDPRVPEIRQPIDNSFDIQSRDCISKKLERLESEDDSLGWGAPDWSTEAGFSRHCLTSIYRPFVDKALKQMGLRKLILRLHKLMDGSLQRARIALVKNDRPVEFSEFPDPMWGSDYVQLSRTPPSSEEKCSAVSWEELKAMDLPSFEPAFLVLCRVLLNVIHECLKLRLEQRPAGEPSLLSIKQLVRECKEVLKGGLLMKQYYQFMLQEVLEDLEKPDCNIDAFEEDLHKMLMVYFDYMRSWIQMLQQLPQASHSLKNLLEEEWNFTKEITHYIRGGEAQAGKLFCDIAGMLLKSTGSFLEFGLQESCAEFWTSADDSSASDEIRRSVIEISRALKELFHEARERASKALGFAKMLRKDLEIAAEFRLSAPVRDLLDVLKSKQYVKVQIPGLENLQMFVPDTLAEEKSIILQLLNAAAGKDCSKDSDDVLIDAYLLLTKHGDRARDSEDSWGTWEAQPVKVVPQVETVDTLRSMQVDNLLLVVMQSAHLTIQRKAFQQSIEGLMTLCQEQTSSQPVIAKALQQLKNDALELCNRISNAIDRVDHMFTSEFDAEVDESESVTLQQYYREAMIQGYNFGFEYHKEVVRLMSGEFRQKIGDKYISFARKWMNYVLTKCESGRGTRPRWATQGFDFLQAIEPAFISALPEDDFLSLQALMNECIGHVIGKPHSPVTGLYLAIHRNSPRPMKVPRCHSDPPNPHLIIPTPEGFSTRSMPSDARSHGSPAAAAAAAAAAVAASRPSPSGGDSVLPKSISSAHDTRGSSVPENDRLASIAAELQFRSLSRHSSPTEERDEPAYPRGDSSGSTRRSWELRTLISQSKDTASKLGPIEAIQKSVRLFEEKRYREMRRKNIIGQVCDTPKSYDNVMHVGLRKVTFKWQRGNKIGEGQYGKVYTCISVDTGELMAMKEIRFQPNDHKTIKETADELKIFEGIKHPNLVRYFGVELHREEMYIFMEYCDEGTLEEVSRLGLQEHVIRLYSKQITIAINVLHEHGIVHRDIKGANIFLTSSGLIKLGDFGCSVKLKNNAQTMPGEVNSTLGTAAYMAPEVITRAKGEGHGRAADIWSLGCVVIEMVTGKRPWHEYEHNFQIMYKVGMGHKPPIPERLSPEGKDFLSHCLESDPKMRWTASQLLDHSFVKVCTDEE
Sequence of Ribosomal protein S6 kinase alpha-5 (O75582 whole entry): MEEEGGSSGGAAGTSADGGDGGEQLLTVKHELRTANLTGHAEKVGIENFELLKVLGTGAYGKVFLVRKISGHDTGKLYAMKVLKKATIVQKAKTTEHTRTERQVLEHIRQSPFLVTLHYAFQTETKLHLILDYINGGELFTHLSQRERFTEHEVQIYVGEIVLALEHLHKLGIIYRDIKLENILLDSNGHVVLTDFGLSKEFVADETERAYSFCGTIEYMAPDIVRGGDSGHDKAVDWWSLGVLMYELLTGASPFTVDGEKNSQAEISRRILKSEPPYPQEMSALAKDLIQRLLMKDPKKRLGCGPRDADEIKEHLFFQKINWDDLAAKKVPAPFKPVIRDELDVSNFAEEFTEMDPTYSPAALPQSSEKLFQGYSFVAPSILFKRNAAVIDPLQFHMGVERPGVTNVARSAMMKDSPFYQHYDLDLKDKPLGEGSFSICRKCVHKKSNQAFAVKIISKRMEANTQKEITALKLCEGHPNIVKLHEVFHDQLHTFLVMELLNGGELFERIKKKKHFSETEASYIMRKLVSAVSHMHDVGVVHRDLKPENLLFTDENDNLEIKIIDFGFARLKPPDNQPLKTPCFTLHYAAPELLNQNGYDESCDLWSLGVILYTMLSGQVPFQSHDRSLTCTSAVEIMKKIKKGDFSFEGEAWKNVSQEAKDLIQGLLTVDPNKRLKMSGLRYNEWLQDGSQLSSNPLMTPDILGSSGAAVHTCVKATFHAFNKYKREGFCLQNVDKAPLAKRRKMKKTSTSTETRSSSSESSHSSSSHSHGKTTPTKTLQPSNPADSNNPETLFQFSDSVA

For `O=C(NOC[C@H](O)CO)c1ccc(F)c(F)c1Nc1ccc(I)cc1F` [MIRDAMETINIB], the Kd in test [1], in test [2], in test [3], in test [4], in [5] and in test [6] was > 30 µM (inactive) in each case. Also, the Kd in test [7], in test [8], in test [9], in test [10] and in test [11] was > 30 µM (inactive) in each case.

Regarding `C=CCN(/C=C1/C(=O)O[C@H](COC)[C@@]2(C)C1=C(O)C(=O)C1=C2[C@H](OC(C)=O)C[C@]2(C)C(=O)CC[C@@H]12)CC=C` [SONOLISIB], the Kd in [1], in [2], in [3], in [4], in test [5] and in test [6] was > 30 µM (inactive) each time. Moreover, the Kd in [7], in test [9], in test [10] and in test [11] was > 30 µM (inactive) each time.

Turning to `COc1ccc(-c2ccc3ncc4c(c3c2)n(-c2ccc(N3CCNCC3)c(C(F)(F)F)c2)c(=O)n4C)cn1` [BGT-226 FREE BASE], the Kd is > 30 µM (inactive) in [1]; > 30 µM (inactive) in [2]; > 30 µM (inactive) in [3]; > 30 µM (inactive) in test [4]; > 30 µM (inactive) in test [5]; 8.49 µM (active) in [6]. The Kd in test [7] was > 30 µM (inactive); in test [8], > 30 µM (inactive); in test [9] it was > 30 µM (inactive); in test [10], 0.246 µM (active); in [11], > 30 µM (inactive).

For the compound `COc1cc2ncnc3c2cc1OCCCCCN(C)Cc1ccc(Br)cc1N3` [JNJ-26483327], the Kd in test [1], in test [2], in test [3], in test [4], in test [6] and in [7] was > 30 µM (inactive) in each case. Also, the Kd in test [8], in test [9], in [12], in test [10] and in test [11] was > 30 µM (inactive) throughout.

For `CCOc1ccn(-c2ccc(F)cc2)c(=O)c1C(=O)Nc1ccc(Oc2ccnc(N)c2Cl)c(F)c1` [BMS-777607], the Kd in test [1], in [2], in test [3], in test [4], in test [6] and in test [7] was > 30 µM (inactive) each time. Further, the Kd in test [8], in test [9], in [12] and in [11] was > 30 µM (inactive) in each case.

As to `O=C(NC[C@H](O)CO)c1ccncc1Nc1ccc(I)cc1F` [PIMASERTIB], the Kd in [1], in test [2], in test [3], in [4], in test [5] and in [6] was > 30 µM (inactive) throughout. The Kd in test [7], in test [8], in [9], in test [10] and in test [11] was > 30 µM (inactive) in each case.

Regarding `CC(C)CC(=O)Nc1[nH]nc2c1CN(C(=O)C1CCN(C)CC1)C2(C)C` [PHA-793887], the Kd in [1], in [2], in test [3], in test [4], in [5] and in [6] was > 30 µM (inactive) throughout. In addition, the Kd is > 30 µM (inactive) in [7]; > 30 µM (inactive) in test [8]; > 30 µM (inactive) in [9]; 2.18 µM (active) in [10]; > 30 µM (inactive) in test [11].

Turning to `N#CCNC(=O)c1ccc(-c2ccnc(Nc3ccc(N4CCOCC4)cc3)n2)cc1` [MOMELOTINIB], the Kd in [1] is > 30 µM (inactive); in test [2], > 30 µM (inactive); in [3] it was > 30 µM (inactive); in test [5], > 30 µM (inactive); in [6] it was 0.302 µM (active); in test [8] it was > 30 µM (inactive). Moreover, the Kd in [9] is > 30 µM (inactive); in test [12], > 30 µM (inactive); in test [10], 0.918 µM; in test [11], > 30 µM (inactive).

For the compound `NC[C@@](O)(c1ccc(Cl)cc1)c1ccc(-c2cn[nH]c2)cc1` [AT-13148], the Kd in test [1], in test [2], in [3], in test [4], in test [5] and in [6] was > 30 µM (inactive) in each case. Besides, the Kd in [7], in [8], in test [9], in test [12] and in [11] was > 30 µM (inactive) throughout.

Turning to `O=C(O)c1ccc2c(c1)nc(Nc1cccc(Cl)c1)c1ccncc12` [SILMITASERTIB], the Kd in test [1] is > 30 µM (inactive); in [2], 2.08 µM (active); in test [3], > 30 µM (inactive); in [4], > 30 µM (inactive); in [5] it was > 30 µM (inactive); in test [7] it was > 30 µM (inactive). The Kd in [8], in test [9], in test [12] and in test [11] was > 30 µM (inactive) throughout.

Regarding `CCc1nc(C(N)=O)c(Nc2ccc(N3CCC(N4CCN(C)CC4)CC3)c(OC)c2)nc1NC1CCOCC1` [GILTERITINIB], the Kd was > 30 µM (inactive) in test [1]; > 30 µM (inactive) in [2]; > 30 µM (inactive) in test [3]; 0.51 µM (active) in test [4]; > 30 µM (inactive) in test [5]; 0.96 µM (active) in test [6]. Also, the Kd was > 30 µM (inactive) in test [7]; > 30 µM (inactive) in test [8]; > 30 µM (inactive) in [9]; 2.98 µM (active) in test [12]; > 30 µM (inactive) in test [11].

One may read the Kd as the equilibrium constant for the complex coming apart.
